Data from US8598120B2 (Amylin Pharmaceuticals, LLC, priority 2004, dated 2013).
Square brackets hold non-standard residues; d marks the D form. Ends that are not written are not given here. * marks the point of attachment. Pentanoyl(4-Me) = CC(C)CCC(=O)*; Orn = NCCC[C@H](N)C(=O)O; Aib = CC(C)(N)C(=O)O; For = O=C*

Experiment: Food intake assay in overnight fasted mice
Format: in vivo
Details: 25 nmol/kg intraperitoneal
Experimental: Female NIH/Swiss mice (8-14 weeks old) were group housed with a 12:12 hour light:dark cycle. Water and a standard pelleted mouse chow diet are available ad libitum, except as noted. Animals are fasted starting at approximately 1500 hrs, 1 day prior to experiment.
The effects of treatment on food intake are expressed as % change relative to control.

Row | Substance | cumulative food intake compared to vehicle, 30 min [%] | cumulative food intake compared to vehicle, 60 min [%] | cumulative food intake compared to vehicle, 120 min [%] | cumulative food intake compared to vehicle, 180 min [%]
1 | KCNTATCVLGRLSQELHRLQTVPRTNTGSNTY [Compound 100] | −60 | −52 | −41 | 
2 | Isocaproyl-STAVLG[K(For)]LSQELH[K(For)]LQTYPRTNTGSGTP ({Pentanoyl(4-Me)}-STAVLGK(For)LSQELHK(For)LQTYPRTNTGSGTP-NH2; SMILES CC(C)CCC(=O)N[C@@H](CO)C(=O)N[C@H](C(=O)N[C@@H](C)C(=O)N[C@H](C(=O)N[C@@H](CC(C)C)C(=O)NCC(=O)N[C@@H](CCCCNC=O)C(=O)N[C@@H](CC(C)C)C(=O)N[C@@H](CO)C(=O)N[C@@H](CCC(N)=O)C(=O)N[C@@H](CCC(=O)O)C(=O)N[C@@H](CC(C)C)C(=O)N[C@@H](Cc1c[nH]cn1)C(=O)N[C@@H](CCCCNC=O)C(=O)N[C@@H](CC(C)C)C(=O)N[C@@H](CCC(N)=O)C(=O)N[C@H](C(=O)N[C@@H](Cc1ccc(O)cc1)C(=O)N1CCC[C@H]1C(=O)N[C@@H](CCCNC(=N)N)C(=O)N[C@H](C(=O)N[C@@H](CC(N)=O)C(=O)N[C@H](C(=O)NCC(=O)N[C@@H](CO)C(=O)NCC(=O)N[C@H](C(=O)N1CCC[C@H]1C(N)=O)[C@@H](C)O)[C@@H](C)O)[C@@H](C)O)[C@@H](C)O)C(C)C)[C@@H](C)O) [Compound 30] | −1 | −2 | −19 | 
3 | CSNASTCVLGRLSQELHRLQTYPRTNTGSNTY [Compound 21] | 9 | −5 | −18 | −18
4 | KCNTATCVLG[Orn]LSQELH[Orn]LQTYPRTNTGSNTY (cysteine pairing not given here) [Compound 61] | −23 | −27 | −32 | 
5 | KCNTATCVLGRLANFLHRLQTYPRTNTGSNTY [Compound 14] | −52 | −36 | −28 | −33
6 | CSNLATCVLGRLSQELHRLQTYPRTNTGSNTY [Compound 22] | −11 | −20 | −31 | −30
7 | KCNTATCVLGRLAAFLHRLQTYPRTNTGSNTY [Compound 96] | −49 | −38 | −19 | −23
8 | KCNTATCATQRLSQELHRLQTYPRTNTGSNTY [Compound 51] | −44 | −39 | −35 | 
9 | KCNTATCVLGRLSQELHRLQTMPRTNTGSNTY [Compound 99] | −57 | −55 | −50 | 
10 | KCNTATCVLG(homoK)LSQELH(homoK)LQTYPRTNTGSNTY [Compound 63] | −19 | −22 | −28 | 
11 | KCNTATCVLGRLAQFLHRLQTYPRTNTGSNTY [Compound 106] | −58 | −54 | −39 | 
12 | KCNTATCVLGRLSQELHRLQTYPRTNTGSETF [Compound 91] | −59 | −47 | −26 | −24
13 | Isocaproyl-STAVL(Aib)[K(For)]LSQEL(Aib)[K(For)]LQTYPRTNTGSNTY ({Pentanoyl(4-Me)}-STAVL[Aib]K(For)LSQEL[Aib]K(For)LQTYPRTNTGSNTY-NH2; SMILES CC(C)CCC(=O)N[C@@H](CO)C(=O)N[C@H](C(=O)N[C@@H](C)C(=O)N[C@H](C(=O)N[C@@H](CC(C)C)C(=O)NC(C)(C)C(=O)N[C@@H](CCCCNC=O)C(=O)N[C@@H](CC(C)C)C(=O)N[C@@H](CO)C(=O)N[C@@H](CCC(N)=O)C(=O)N[C@@H](CCC(=O)O)C(=O)N[C@@H](CC(C)C)C(=O)NC(C)(C)C(=O)N[C@@H](CCCCNC=O)C(=O)N[C@@H](CC(C)C)C(=O)N[C@@H](CCC(N)=O)C(=O)N[C@H](C(=O)N[C@@H](Cc1ccc(O)cc1)C(=O)N1CCC[C@H]1C(=O)N[C@@H](CCCNC(=N)N)C(=O)N[C@H](C(=O)N[C@@H](CC(N)=O)C(=O)N[C@H](C(=O)NCC(=O)N[C@@H](CO)C(=O)N[C@@H](CC(N)=O)C(=O)N[C@H](C(=O)N[C@@H](Cc1ccc(O)cc1)C(N)=O)[C@@H](C)O)[C@@H](C)O)[C@@H](C)O)[C@@H](C)O)C(C)C)[C@@H](C)O) [Compound 31] | −11 | −18 | −23 | 
14 | KCNTATCVLGRLSQELHKLQTYPRTNTGSNTY [Compound 24] | −40 | −34 | −35 | −35
15 | CANLSTCVLGRLSQELHRLQTYPRTNTGSNTY [Compound 19] | −25 | −25 | −35 | −31
